# In patent publication US20230101768A1, “METHOD TO TREAT MANGANESE TOXICITY AND MANGANESE-INDUCED PA[…] HUMANS” (priority 2021, published 2023):
# Like-named read-outs stand apart in the source and are kept apart here.
# What was measured:
# SLC30A10 [1] = type: in vivo, mice; settings: oral manganese ~15 mg/kg daily from birth until 8 weeks
# Experimental: A well-characterized drinking water-based manganese exposure regimen was used to model human environmental manganese exposure by providing mice with ˜50 mg manganeseCl2.4H2O/kg body weight daily (˜15 mg absolute manganese/kg per day) from birth until 8 weeks of age. This, and related similar, dosing regimens: 1) approximate the increase in manganese exposure in humans consuming well water contaminated with 1.5 mg manganese/L, which is the median well water concentration associated with neurological deficits in children; 2) increase brain manganese levels by ˜2-3 fold, similar to human patients; 3) produce measurable neurobehavioral deficits without overt toxicity; and 4) model exposure to manganese in developmentally-sensitive early-life and adolescent periods (11). Pre-weaning manganese was delivered by pipette directly into the mouth, and post-weaning manganese was delivered in drinking water using procedures described in detail in ref. (11). In brief, pre-weaning dosing was adjusted to each animal's body weight. For this, a stock solution of 69.2 mg absolute manganese/ml prepared in milliQ water was diluted in milliQ water containing 2.5% (wt/vol) of the natural sweetener Stevia (to facilitate intake by pups), and the required manganese amount (0.2 μl manganese stock/g body weight) was delivered in a dose of ˜5-10 μl/animal. For post-weaning exposure, a 27.7 mg absolute manganese/ml stock solution was prepared in water and diluted to 0.069 mg absolute manganese/ml in drinking water, which provided mice with ˜15 mg absolute manganese/kg per day based on a daily water intake of ˜2-5 ml/mouse depending on age.
# (§1) To assay for the protective effect of roxadustat, animals were exposed to roxadustat or vehicle with or without manganese in drinking water from ˜4 weeks of age. Treatment lasted for 4 weeks from initiation. Roxadustat (Selleckchem) was prepared as a 50 mg/ml stock solution in DMSO, then diluted to 1 mg/ml in sterile phosphate buffered saline (PBS), and delivered by daily i.p. injection at 10 mg/kg. Vehicle was 2% DMSO in PBS. For this experiment, drinking water manganese levels were adjusted to 0.138 mg absolute manganese/ml so that animals received ˜30 mg absolute manganese/kg daily. A higher level of manganese was used because exposure was initiated after weaning, which was necessary because daily i.p. injections for roxadustat delivery were not possible in the pre-weaning period.
# (§2) Animals were euthanized using carbon dioxide and tissue dissected for qRT-PCR or ICPMS analyses as described by us previously (50).
# (§3) Quantitative RT-PCR assays. RNA extraction from HepG2 cells and mouse tissue, reverse transcription to cDNA, and qRT-PCR analyses were performed as described by us previously (47, 50). For analyses of mouse brain samples, a part of the midbrain, including the basal ganglia, was used. Transcript levels were quantified using the ΔΔCT method with 18S (in mice) or TBP (in HepG2 cells) as the internal control, also as described by us previously (47, 50).
# SLC30A10 [2] = type: cell-based; settings: primary human hepatocytes, 250 μM manganese for 4 h
# Experimental: (§4) (A) and (B): qRT-PCR assays in cells treated with or without 10 μM LW6 for 1 h followed by 0 or 250 μM manganese for 4 h (A) or with or without 20 μM roxadustat or 80 μM vadadustat for 16 h (B). […] For (B), expression in the absence of drug treatment was normalized to 1. N=3. Mean±SE. *P<0.05 by t-test (A) or one-way ANOVA and Dunnett's post hoc test for the comparison between no drug and other conditions (B).
# (§5) Cell culture. HepG2 cells were grown in Eagle's modified essential medium (MEM; Corning) with 10% fetal bovine serum (Atlanta Biologicals), 100 IU/ml penicillin (Corning), and 100 μg/ml streptomycin (Corning). 293T cells were maintained in Dulbecco's modified essential medium/F12 (Thermo) supplemented with 10% fetal bovine serum, penicillin (100 IU/ml), and streptomycin (100 μg/ml). Human primary hepatocytes were purchased from XenoTech (catalog #HPCH10+) and cultured according to protocols provided by the supplier.
# (§6) manganese and drug treatments in cell culture. Cells were treated with indicated levels of manganese as manganeseCl2.4H2O (Fisher). Vehicle for manganese treatment was water. Prolyl hydroxylase inhibitors roxadustat (Caymen), vadadustat, and molidustat (both APE-Bio); the HIFα inhibitor LW6 (Selleckchem); the proteasomal inhibitor MG132 (Sigma); and the transcription inhibitor actinomycin D (Sigma) were dissolved in DMSO. […] Vehicle treatment for all drugs was DMSO.
# as §3
# VEGF = type: cell-based; settings: primary human hepatocytes, 250 μM manganese for 4 h
# Experimental: as §4, §5, §6, §3
# SLC30A10 [3] = settings: HepG2 cells, 250 μM manganese, immunoblot
# Experimental: Immunoblots. HepG2 cells were cultured in 35 mm dishes, treated with or without manganese, MG132 and/or prolyl hydroxylase inhibitors, and scrapped using 200 μl of RIPA buffer (50 mM Tris-HCl, pH7.4; 150 mM NaCl; 1Mm EDTA; 1% Triton; 0.25% sodium deoxycholate; protease inhibitors cocktail (Thermo A32953)). Whole-cell lysates were prepared by adding loading buffer (50 mM Tris-HCl, pH 7.4; 2% sodium dodecyl sulfate; 10% glycerol, 0.1 M dithiothreitol; 0.01% (weight/volume) bromophenol blue) and boiling the samples for 5 min. Equal volumes of samples were loaded per lane. Further processing was as described by us previously (47). Images were quantified using ImageQuant TL software (GE).
# Antibodies and chemicals. The inventors used the following commercial primary antibodies in this study: rabbit polyclonal anti-HIF1α (Abcam, Ab2185), rabbit polyclonal anti-HIF2α (Novus, NB100-122), rabbit monoclonal anti-HIF1α proline 564 (Cell signaling, 3434S), and mouse monoclonal anti-tubulin (Sigma, T5168). […] Sources of chemicals not provided elsewhere were Thermo Fisher Scientific or Sigma-Aldrich.
# C57BL/6J mice = settings: ~30 mg manganese/kg daily in drinking water, 4 weeks
# Experimental: as §1, §2
# Inductively coupled plasma mass spectrometry. Metal measurements using ICP-MS were performed exactly as described by us previously (47, 50, 51, 99).
compound,measurement,setting,value
"O.O.O.O.[Cl][Mn][Cl] [manganese, manganeseCl2.4H2O]",SLC30A10 levels in intestines,SLC30A10 [1]; 129S4/SvJaeJ mice,not
same,SLC30A10 levels in liver,SLC30A10 [1]; 129S4/SvJaeJ mice,increased
same,SLC30A10 levels in intestines,SLC30A10 [1]; C57BL/6J mice,increase
same,SLC30A10 levels in liver,SLC30A10 [1]; C57BL/6J mice,not
same,Expression of SLC30A10 in the brain,"SLC30A10 [1]; either strain (129S4/SvJaeJ, C57BL/6J)",did not impact
same,SLC30A10 expression after manganese,SLC30A10 [2],increased
same,VEGF expression after manganese,VEGF,increased
same,SLC30A10 protein levels after manganese,SLC30A10 [3],increased
same,Blood manganese after manganese treatment,C57BL/6J mice,trend towards an increase
same,"Brain manganese levels, main effect of manganese treatment",C57BL/6J mice,increasing
